Key:
[1] = Shear-lap joint adhesion test (ASTM D3163) of enteric materials; format: physicochemical; conditions: plasticizer with Eudragit L100-55 (70%/30% enteric material/plasticizer), acetone as solvent, PCL sheets
Text: The influence of solvent (acetone, isopropyl alcohol, and ethyl acetate) and plasticizer (Eudragit NM, Plastoid B, Triethyl Citrate, and Triacetin) on the adhesion force of enteric materials were quantified using ASTM D3163, a standardized shear-lap joint mechanical test. The top figure A illustrates a side view of the experimental setup. Two 2-mm thick PCL (Mn 55 k) polymer sheets are adhered to an enteric material, Eudragit L100-55 (methyl methacrylate) combined with a plasticizer (in a 70%/30% enteric material/plasticizer ratio), using a solvent and pressure. The polymer sheets are then loaded into a tensile testing machine and pulled apart. The force/stress that causes the linker-polymer bond to break is recorded.

[2] = Behaviour over seven days in simulated gastric fluid; format: physicochemical

- adhesion force [1]: greatest adhesion force
Structure (SMILES): CC(=O)OCC(COC(C)=O)OC(C)=O [Triacetin]
- release of plasticizer from a polymer formulation [2]: releases from a polymer formulation in a time-dependent manner over seven days
